According to PMC2802337 (Prostaglandins, leukotrienes, and essential fatty acids, 2009):

Molecular target: T1, 15-prostaglandin dehydrogenase/eicosanoid oxidoreductase (EOR) (Homo sapiens, UniProt P15428)
T1 sequence (P15428 1-266): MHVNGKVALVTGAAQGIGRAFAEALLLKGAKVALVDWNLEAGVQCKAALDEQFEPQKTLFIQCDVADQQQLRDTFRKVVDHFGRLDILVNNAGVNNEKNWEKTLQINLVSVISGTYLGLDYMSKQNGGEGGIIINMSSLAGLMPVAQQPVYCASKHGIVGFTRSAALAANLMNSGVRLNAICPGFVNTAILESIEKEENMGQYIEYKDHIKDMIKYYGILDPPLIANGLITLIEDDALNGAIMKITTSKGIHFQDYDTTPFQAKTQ
Test: spectrophotometric NADH formation at […] nm, initial rate of conversion
Format: biochemical

CCCCC[C@H](O)/C=C/C=C\C=C\C=C\[C@@H](O)[C@@H](O)CCCC(=O)O [LXA4]
spectrophotometric NADH formation at 340 nm, initial rate of conversion: 3.1 µM/min
